Assay results as given in patent publication US9579385B2, “Ophthalmic compositions comprising polyvinyl caprolactam-polyvinyl acetate-polyethylene glycol graft copolymers” (Allergan, Inc., priority 2011, dated 2017).
Converted amounts (≈) assume the structure as drawn.

Assay: Bimatoprost solubility in formulation vehicles with different solubilizers
Assay type: physicochemical
Conditions: for solubility at 8 weeks: measured at 8 weeks; for solubility at 1 week: formulation vehicle with 1% SOLUPLUS (PCA-PVA-PEG), vehicle with 1% SOLUPLUS (PCA-PVA-PEG), measured at 1 week only
Text: Table 1 summarizes solubility of bimatoprost in vehicles with 5 different solubilizers over a range of temperatures.

## CCNC(=O)CCC/C=C\C[C@@H]1[C@@H](/C=C/[C@@H](O)CCc2ccccc2)[C@H](O)C[C@@H]1O [Bimatoprost]
Formulation vehicle with 1% POE 40 Stearate, aqueous with cosolvent or surfactant or cyclodextrin, vehicle with 1% POE 40 Stearate, 5 °C
  solubility at 8 weeks: 1270 µg/mL (≈ 3.05 mM)
Formulation vehicle with 1% POE 40 Stearate, aqueous with cosolvent or surfactant or cyclodextrin, vehicle with 1% POE 40 Stearate, 25 °C
  solubility at 8 weeks: 1210 µg/mL (≈ 2.92 mM)
Formulation vehicle with 1% POE 40 Stearate, aqueous with cosolvent or surfactant or cyclodextrin, vehicle with 1% POE 40 Stearate, 40 °C
  solubility at 8 weeks: 1150 µg/mL (≈ 2.76 mM)
Formulation vehicle with 1% Polysorbate 20, aqueous with cosolvent or surfactant or cyclodextrin, vehicle with 1% Polysorbate 20, 5 °C
  solubility at 8 weeks: 1240 µg/mL (≈ 2.99 mM)
Formulation vehicle with 1% Polysorbate 20, aqueous with cosolvent or surfactant or cyclodextrin, vehicle with 1% Polysorbate 20, 25 °C
  solubility at 8 weeks: 1180 µg/mL (≈ 2.83 mM)
Formulation vehicle with 1% Polysorbate 20, aqueous with cosolvent or surfactant or cyclodextrin, vehicle with 1% Polysorbate 20, 40 °C
  solubility at 8 weeks: 1050 µg/mL (≈ 2.53 mM)
Formulation vehicle with 1% Polysorbate 80, aqueous with cosolvent or surfactant or cyclodextrin, vehicle with 1% Polysorbate 80, 5 °C
  solubility at 8 weeks: 1680 µg/mL (≈ 4.04 mM)
Formulation vehicle with 1% Polysorbate 80, aqueous with cosolvent or surfactant or cyclodextrin, vehicle with 1% Polysorbate 80, 25 °C
  solubility at 8 weeks: 1520 µg/mL (≈ 3.67 mM)
Formulation vehicle with 1% Polysorbate 80, aqueous with cosolvent or surfactant or cyclodextrin, vehicle with 1% Polysorbate 80, 40 °C
  solubility at 8 weeks: 1460 µg/mL (≈ 3.51 mM)
Aqueous with cosolvent or surfactant or cyclodextrin, 5 °C
  solubility at 1 week: 427 µg/mL (≈ 1.03 mM)
Aqueous with cosolvent or surfactant or cyclodextrin, 25 °C
  solubility at 1 week: 3510 µg/mL (≈ 8.45 mM)
Aqueous with cosolvent or surfactant or cyclodextrin, 40 °C
  solubility at 1 week: 4750 µg/mL (≈ 11.4 mM)
Formulation vehicle with 1% SOLUTOL HS 15, aqueous with cosolvent or surfactant or cyclodextrin, vehicle with 1% SOLUTOL HS 15, 5 °C
  solubility at 8 weeks: 1500 µg/mL (≈ 3.61 mM)
Formulation vehicle with 1% SOLUTOL HS 15, aqueous with cosolvent or surfactant or cyclodextrin, vehicle with 1% SOLUTOL HS 15, 25 °C
  solubility at 8 weeks: 1320 µg/mL (≈ 3.18 mM)
Formulation vehicle with 1% SOLUTOL HS 15, aqueous with cosolvent or surfactant or cyclodextrin, vehicle with 1% SOLUTOL HS 15, 40 °C
  solubility at 8 weeks: 1240 µg/mL (≈ 2.98 mM)
